Like-named read-outs stand apart in the source and are kept apart here.
Columns and labels:
[1] = tested on: HIV-1/MN; experiment: Anti HIV activity in PM-1 cells (P24 ELISA, MTT corrected); type: cell-based; details: 1 μM; PM-1 cells infected with HIV-1/MN, 96 h, P24 antigen corrected by MTT
Method: Human CD^4+ T cell line PM-1 used in the assay was cultured in RPMI-1640 medium containing 10% Fetal bovine serum, 2 g/L sodium bicarbonate, 100,000 units/L Pencillin-G and 100 mg/L streptomycin. Healthy PM-1 cells were plated on the first day in a 96 well plate at 2×10^6 cells per well. After 24 h HIV-1/MN was added to the culture and incubated for 2 h for infection. Cells were washed twice with PBS to remove the virus in the culture. Different concentrations of DRF compounds ranging from 10−^4 to 10^−8 M were added to the culture and incubated for 96 h. The viability of cells was then assessed by standard MTT assay and the viral antigen P24 levels were estimated by ELISA method. Based on the MTT assay values the P 24 antigen values were corrected.
All the samples were tested in triplicates and the average was used for calculations. AZT was used as standard compound for comparision.

[2] = tested on: KB; details: KB cells; cited from earlier work
[3] = tested on: P388 lymphocytic leukemia; details: P388 cells; cited from earlier work
[4] = tested on: PA1; experiment: Sulforhodamine B growth inhibition, ovarian PA1; type: cell-based, human; details: Homo sapiens, PA-1, 48 h, SRB, read-out: GROWTH INHIBITION (GI 50)
Method: (§1) Each test compound was screened against a battery of cell lines representing eight different types of cancers. In a typical procedure, 1×10^4 cells were seeded into each well of 96 well plate in 100 μL volume of RPMI 1640 medium containing antibiotics and 10% FCS.
(§2) The plates were incubated at 37° C. in presence of CO2. After 24 h, test compounds were evaluated at five 10 fold dilutions ranging from 100 to 0.01 μM. To each test well 100 μL of test compound solution was added and medium with vehicle was added to control wells and the plates were further incubated. After 48 h of incubation, plates were terminated by Sulforhodamine B method.
(§3) The optical density which is proportional to protein mass, is then read by automated spectrophotometric plate reader at a wavelength of 515 nm.

[5] = tested on: MCF7; experiment: Sulforhodamine B growth inhibition, breast MCF7; type: cell-based, human; details: Homo sapiens, 48 h, SRB, read-out: GROWTH INHIBITION (GI 50)
Method: as §1, §2, §3

[6] = tested on: UACC62; experiment: Sulforhodamine B growth inhibition, melanoma UACC62; type: cell-based, human; details: Homo sapiens, UACC-62, 48 h, SRB, read-out: GROWTH INHIBITION (GI 50)
Method: as §1, §2, §3

[7] = tested on: MCF-7/ADR; experiment: Sulforhodamine B growth inhibition, breast MCF-7/ADR; type: cell-based, human; details: 48 h, SRB, read-out: GROWTH INHIBITION (GI 50)
Method: as §1, §2, §3

[8] = tested on: SW-620; experiment: Sulforhodamine B growth inhibition, colon SW-620; type: cell-based, human; details: 48 h, SRB, read-out: GROWTH INHIBITION (GI 50)
Method: as §1, §2, §3

[9] = tested on: HT29; experiment: Sulforhodamine B growth inhibition, colon HT29; type: cell-based, human; details: Homo sapiens, HT-29, 48 h, SRB, read-out: GROWTH INHIBITION (GI 50)
Method: as §1, §2, §3

[10] = tested on: A498; experiment: Sulforhodamine B growth inhibition, renal A498; type: cell-based, human; details: 48 h, SRB, read-out: GROWTH INHIBITION (GI 50)
Method: as §1, §2, §3

[11] = tested on: H522; experiment: Sulforhodamine B growth inhibition, lung H522; type: cell-based, human; details: SRB, read-out: GROWTH INHIBITION (GI 50)
Method: as §1, §2, §3

[12] = tested on: U251; experiment: Sulforhodamine B growth inhibition, CNS U251; type: cell-based, human; details: SRB, read-out: GROWTH INHIBITION (GI 50)
Method: as §1, §2, §3

[13] = tested on: SKOV-3; experiment: Sulforhodamine B growth inhibition, ovarian SKOV-3; type: cell-based, human; details: SRB, read-out: GROWTH INHIBITION (GI 50)
Method: as §1, §2, §3

[14] = tested on: PC-3; experiment: Sulforhodamine B growth inhibition, prostate PC-3; type: cell-based, human; details: Homo sapiens, 48 h, SRB, read-out: GROWTH INHIBITION (GI 50)
Method: as §1, §2, §3

[15] = tested on: DU145; experiment: Sulforhodamine B growth inhibition, prostate DU145; type: cell-based, human; details: SRB, read-out: GROWTH INHIBITION (GI 50)
Method: as §1, §2, §3

[16] = tested on: ACHN; experiment: Sulforhodamine B growth inhibition, renal ACHN; type: cell-based; details: Homo sapiens, 48 h, SRB, read-out: GROWTH INHIBITION (GI 50)
Method: as §1, §2, §3

[17] = tested on: M14; experiment: Sulforhodamine B growth inhibition, melanoma M14; type: cell-based, human; details: 48 h, SRB, read-out: GROWTH INHIBITION (GI 50)
Method: as §1, §2, §3

[18] = tested on: HIV-1 (EIB); details: cited from earlier work

## Cc1cn([C@H]2C[C@H](N=[N+]=[N-])[C@@H](CO)O2)c(=O)[nH]c1=O [AZT, reference compound]
[1]
  Percentage Inhibition: 72.47%

## C=C1CC[C@@H]2[C@](C)(CO)[C@H](O)CC[C@@]2(C)[C@@H]1C/C=C1/C(=O)OC[C@H]1O [Andrographolide]
[2]
  cytotoxic activity: potent cytotoxic activity
[3]
  cytotoxic activity: potent cytotoxic activity

## C=C1CC[C@@H]2[C@]3(C)COC(C)(C)O[C@@H]3CC[C@@]2(C)[C@@H]1C/C=C1/C(=O)OC[C@H]1O [Example 1, 3,19-isopropylidene andrographolide]
other
  melting point: 194.5 °C
[4]
  GI50: 2 µM
[5]
  GI50: 13 µM
[6]
  GI50: 4 µM
[7]; Homo sapiens, NCI/ADR-RES
  GI50: 2 µM
[8]; Homo sapiens
  GI50: 5 µM
[9]
  GI50: 2 µM
[10]; Homo sapiens
  GI50: 13 µM
[11]; Homo sapiens, NCI-H522, 48 h
  GI50: 14 µM
[12]; Homo sapiens, U-251, 48 h
  GI50: 4 µM
[13]; Homo sapiens, SK-OV-3, 48 h
  GI50: 8 µM

## C=C1CCC2[C@]3(C)COC(c4ccccc4)O[C@@H]3CC[C@]2(C)[C@H]1C/C=C1/C(=O)OC[C@H]1O (stereo partly drawn) [Example 2, 3,19-Benzylidene andrographolide]
other
  melting point: 142 to 143 °C

## C=C1CCC2[C@]3(C)COC(C)(c4ccccc4)O[C@@H]3CC[C@]2(C)[C@H]1C/C=C1/C(=O)OC[C@H]1O (stereo partly drawn) [Example 3, 3,19-(1-Phenylethylidene)andrographolide]
other
  melting point: 201 to 203 °C
[4]
  GI50: 19 µM
[5]
  GI50: 12 µM
[6]
  GI50: 3 µM
[7]; Homo sapiens, NCI/ADR-RES
  GI50: 2 µM
[8]; Homo sapiens
  GI50: 5 µM
[9]
  GI50: 2 µM
[10]; Homo sapiens
  GI50: 3 µM
[11]; Homo sapiens, NCI-H522, 48 h
  GI50: 12 µM
[12]; Homo sapiens, U-251, 48 h
  GI50: 2 µM
[13]; Homo sapiens, SK-OV-3, 48 h
  GI50: 5 µM

## C=C1CCC2[C@]3(C)COC(C)(C)O[C@@H]3CC[C@]2(C)[C@H]1C/C=C1/C(=O)OC[C@H]1OC(=O)[C@H](CCSC)NC(=O)OC(C)(C)C (stereo partly drawn) [Example 4, 3,19-isopropylidene-14-(N-Boc-methionyl)andrographolide]
other
  melting point: 70 °C

## C=C1CCC2[C@](C)(CO)[C@H](O)CC[C@]2(C)[C@H]1C/C=C1/C(=O)OC[C@H]1OC(C)=O (stereo partly drawn) [Example 7, 14-acetyl andrographolide]
other
  melting point: 169 °C

## C=C1CCC2[C@](C)(CO)[C@H](O)CC[C@]2(C)[C@H]1C/C=C1/C(=O)OC[C@H]1OC(=O)Nc1ccccc1 (stereo partly drawn) [Example 9, 14-phenylcarbamoyl andrographolide]
other
  melting point: 120 °C
[5]
  GI50: 2.5 µM
[6]
  GI50: 3 µM
[7]; Homo sapiens, NCI/ADR-RES
  GI50: 0.4 µM
[14]
  GI50: 3 µM
[8]; Homo sapiens
  GI50: 2.5 µM
[9]
  GI50: 4 µM
[11]; Homo sapiens, NCI-H522, 48 h
  GI50: 12 µM
[15]; Homo sapiens, DU-145, 48 h
  GI50: 6 µM
[16]
  GI50: 5 µM
[12]; Homo sapiens, U-251, 48 h
  GI50: 6.5 µM
[13]; Homo sapiens, SK-OV-3, 48 h
  GI50: 3 µM

## C=C1CCC2[C@](C)(CO)[C@H](O)CC[C@]2(C)[C@H]1C/C=C1/C(=O)OC[C@H]1OC(=O)NC(C)C (stereo partly drawn) [Example 10, 14-(N-isopropyl)carbamoyl andrographolide]
other
  melting point: 122 °C

## C=C1CCC2[C@](C)(CO)[C@H](O)CC[C@]2(C)[C@H]1C/C=C1/C(=O)OC[C@H]1OC(=O)/C=C/c1ccccc1 (stereo partly drawn) [Example 11, 14-Cinnamoyl andrographolide]
other
  melting point: 77 °C

## C=C1CCC2[C@](C)(CO)[C@H](O)CC[C@]2(C)[C@H]1C/C=C1/C(=O)OC[C@H]1OC(=O)C(C)C (stereo partly drawn) [Example 12, 14-Isopropanoyl andrographolide]
other
  melting point: 122.6 °C

## C=C1CCC2[C@](C)(CO)[C@H](O)CC[C@]2(C)[C@H]1C/C=C1/C(=O)OC[C@H]1OC(=O)C(C)(C)C (stereo partly drawn) [Example 13, 14-Pivaloyl andrographolide]
other
  melting point: 172.7 °C

## C=C1CCC2[C@](C)(CO)[C@H](O)CC[C@]2(C)[C@H]1C/C=C1/C(=O)OC[C@H]1OC(=O)c1ccccc1 (stereo partly drawn) [Example 14, 14-Benzoyl andrographolide]
other
  melting point: 85.5 to 87 °C
[5]
  GI50: 10 µM
[6]
  GI50: 3 µM
[7]; Homo sapiens, NCI/ADR-RES
  GI50: 3.5 µM
[14]
  GI50: 2 µM
[8]; Homo sapiens
  GI50: 3 µM
[9]
  GI50: 4 µM
[11]; Homo sapiens, NCI-H522, 48 h
  GI50: 7.5 µM
[15]; Homo sapiens, DU-145, 48 h
  GI50: 6 µM
[16]
  GI50: 5 µM
[12]; Homo sapiens, U-251, 48 h
  GI50: 1.5 µM
[13]; Homo sapiens, SK-OV-3, 48 h
  GI50: 3.5 µM

## C=C1CCC2[C@](C)(CO)[C@H](O)CC[C@]2(C)[C@H]1C/C=C1/C(=O)OC[C@H]1OCc1ccccc1 (stereo partly drawn) [Example 15, 14-Benzyl andrographolide]
other
  melting point: 141 °C
[5]
  GI50: 6 µM
[6]
  GI50: 3.5 µM
[7]; Homo sapiens, NCI/ADR-RES
  GI50: 20 µM
[14]
  GI50: 2 µM
[8]; Homo sapiens
  GI50: 3.5 µM
[9]
  GI50: 3.5 µM
[11]; Homo sapiens, NCI-H522, 48 h
  GI50: 12 µM
[15]; Homo sapiens, DU-145, 48 h
  GI50: 4 µM
[16]
  GI50: 4 µM
[12]; Homo sapiens, U-251, 48 h
  GI50: 40 µM
[13]; Homo sapiens, SK-OV-3, 48 h
  GI50: 3 µM

## C=C1CC[C@@H]2[C@](C)(COC(C)=O)[C@H](OC(C)=O)CC[C@@]2(C)[C@@H]1C/C=C1/C(=O)OC[C@H]1OC(=O)C(O)C(NC(=O)c1ccccc1)c1ccccc1 (stereo partly drawn) [Example 18, 3,19-Diacetyl-14-(2′hydroxy-3′-benzoylamino 3′-phenyl)propionyl andrographolide]
[7]
  GI50: 8 µM
[8]
  GI50: 5 µM
[17]
  GI50: 3 µM
[10]
  GI50: 10 µM
[11]; 48 h
  GI50: 20 µM
[15]; 48 h
  GI50: 3 µM
[12]; 48 h
  GI50: 8 µM
[13]; 48 h
  GI50: 4 µM

## C=C1CCC2[C@](C)(COC(=O)CC)[C@H](OC(=O)CC)CC[C@]2(C)[C@H]1C/C=C1/C(=O)OC[C@H]1OC(=O)CNC(=O)OC(C)(C)C (stereo partly drawn) [Example 20, 14-(N-Boc-glycinyl)-3,19-dipropionyl andrographolide]
other
  melting point: 65 °C

## C=C1CC[C@@H]2[C@](C)(COC(C)=O)[C@H](OC(C)=O)CC[C@@]2(C)[C@@H]1C/C=C1/C(=O)OC[C@H]1OC(=O)CNC(C)=O [Example 22, 14-(N-acetyl-glycinyl)-3,19-diacetyl andrographolide]
[7]
  GI50: 8 µM
[8]
  GI50: 5 µM
[17]
  GI50: 9.5 µM
[10]
  GI50: 25 µM
[11]; 48 h
  GI50: 20 µM
[15]; 48 h
  GI50: 8 µM
[12]; 48 h
  GI50: 1.5 µM
[13]; 48 h
  GI50: 30 µM

## C=C1CCC2[C@](C)(COC(=O)CC)C(OC(=O)CC)CC[C@]2(C)[C@H]1C/C=C1/C(=O)OCC1OC(=O)/C=C/c1ccc(OC)c(OC)c1 (stereo partly drawn) [Example 27, 14-(3,4-dimethoxy)cinnamoyl-3,19-dipropionyl andrographolide]
other
  melting point: 85.4 °C

## dehydroandrographolide succinic acid monoester [DASM]
[18]
  minimal concentration inhibitory to HIV-1 (EIB): 1.6 to 3.1 µg/mL
